From ChEMBL document CHEMBL2163248, “Classification of inhibitors of hepatic organic anion transporting polypeptides (OATPs): influence of protein expression on drug-drug interactions” (J Med Chem, 2012) come the findings set out here.

Data set [1] has as its target T1, Solute carrier organic anion transporter family member 1B1 (Homo sapiens, UniProt Q9Y6L6).
T1 sequence (Q9Y6L6 whole entry): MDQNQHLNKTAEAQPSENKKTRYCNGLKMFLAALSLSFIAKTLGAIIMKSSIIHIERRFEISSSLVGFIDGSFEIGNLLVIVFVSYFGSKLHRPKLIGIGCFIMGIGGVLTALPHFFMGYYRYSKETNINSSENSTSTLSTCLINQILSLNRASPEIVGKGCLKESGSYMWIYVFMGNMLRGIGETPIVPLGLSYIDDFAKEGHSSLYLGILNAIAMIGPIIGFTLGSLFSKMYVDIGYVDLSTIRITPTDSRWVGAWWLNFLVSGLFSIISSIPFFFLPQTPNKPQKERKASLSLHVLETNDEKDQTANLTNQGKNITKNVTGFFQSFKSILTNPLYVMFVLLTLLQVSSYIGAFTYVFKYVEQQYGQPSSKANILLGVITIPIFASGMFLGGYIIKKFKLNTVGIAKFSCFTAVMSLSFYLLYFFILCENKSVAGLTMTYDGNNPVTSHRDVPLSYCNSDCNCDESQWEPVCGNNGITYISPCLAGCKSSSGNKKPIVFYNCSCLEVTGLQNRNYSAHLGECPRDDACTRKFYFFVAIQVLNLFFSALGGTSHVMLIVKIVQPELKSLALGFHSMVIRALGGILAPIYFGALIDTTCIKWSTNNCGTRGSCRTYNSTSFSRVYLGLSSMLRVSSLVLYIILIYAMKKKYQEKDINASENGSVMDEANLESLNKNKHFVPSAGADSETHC
Kind of data set: Inhibition of human liver OATP1B1 expressed in HEK293 Flp-In cells assessed as reduction in E17-betaG uptake at 20 uM by scintillation counting. Conditions: hek293, 20 µM.

For data set [2], the target named is T2, Solute carrier organic anion transporter family member 1B3 (Homo sapiens, UniProt Q9NPD5).
T2 sequence (Q9NPD5 whole entry): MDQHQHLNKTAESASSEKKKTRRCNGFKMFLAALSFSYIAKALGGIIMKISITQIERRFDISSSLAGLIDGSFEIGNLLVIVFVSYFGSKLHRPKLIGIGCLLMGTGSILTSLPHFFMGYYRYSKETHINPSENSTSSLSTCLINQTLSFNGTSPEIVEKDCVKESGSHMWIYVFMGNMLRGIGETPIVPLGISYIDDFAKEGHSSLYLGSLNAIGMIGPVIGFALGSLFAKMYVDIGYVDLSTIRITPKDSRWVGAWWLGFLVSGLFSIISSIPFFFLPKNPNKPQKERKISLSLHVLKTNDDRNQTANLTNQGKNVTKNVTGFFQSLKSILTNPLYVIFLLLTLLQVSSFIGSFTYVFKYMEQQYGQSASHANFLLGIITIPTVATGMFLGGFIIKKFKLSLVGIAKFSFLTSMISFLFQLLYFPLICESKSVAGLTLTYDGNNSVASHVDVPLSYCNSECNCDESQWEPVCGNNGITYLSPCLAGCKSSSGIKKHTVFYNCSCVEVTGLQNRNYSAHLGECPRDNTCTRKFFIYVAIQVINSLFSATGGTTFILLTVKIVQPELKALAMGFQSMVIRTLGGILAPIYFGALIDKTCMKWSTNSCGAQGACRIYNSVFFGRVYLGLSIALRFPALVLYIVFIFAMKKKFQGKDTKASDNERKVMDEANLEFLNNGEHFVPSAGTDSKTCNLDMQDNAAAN
Kind of data set: Inhibition of human liver OATP1B3 expressed in HEK293 Flp-In cells assessed as reduction in [3H]E17-betaG uptake at 20 uM incubated for 5 mins by scintillation counting. Conditions: hek293, 5 min.

The target in data set [3] is T3, Solute carrier organic anion transporter family member 2B1 (Homo sapiens, UniProt O94956).
T3 sequence (O94956 whole entry): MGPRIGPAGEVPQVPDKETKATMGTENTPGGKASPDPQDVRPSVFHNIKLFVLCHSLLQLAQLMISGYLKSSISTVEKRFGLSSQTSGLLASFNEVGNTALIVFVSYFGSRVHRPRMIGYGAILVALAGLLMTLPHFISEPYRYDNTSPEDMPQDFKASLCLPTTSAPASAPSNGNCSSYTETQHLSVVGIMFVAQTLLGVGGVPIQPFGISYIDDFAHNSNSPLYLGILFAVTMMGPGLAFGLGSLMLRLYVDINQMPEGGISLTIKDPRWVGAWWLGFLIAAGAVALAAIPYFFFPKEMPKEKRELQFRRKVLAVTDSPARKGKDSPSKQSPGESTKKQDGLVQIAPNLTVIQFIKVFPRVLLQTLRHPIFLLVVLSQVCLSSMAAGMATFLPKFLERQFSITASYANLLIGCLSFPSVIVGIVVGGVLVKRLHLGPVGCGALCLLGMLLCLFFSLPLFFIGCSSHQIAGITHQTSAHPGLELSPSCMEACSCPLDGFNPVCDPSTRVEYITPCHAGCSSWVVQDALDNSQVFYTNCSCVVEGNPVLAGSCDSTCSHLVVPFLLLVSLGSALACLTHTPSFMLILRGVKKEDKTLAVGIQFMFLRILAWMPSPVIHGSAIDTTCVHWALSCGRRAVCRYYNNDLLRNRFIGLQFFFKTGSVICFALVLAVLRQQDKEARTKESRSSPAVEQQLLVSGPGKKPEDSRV
Put plainly: Inhibition of human liver OATP2B1 expressed in HEK293 Flp-In cells assessed as reduction in [3H]E3S uptake at 20 uM incubated for 5 mins by scintillation counting. The following applies: hek293, 5 min.

Take `C[C@@H]1C[C@H]2[C@@H]3CCC4=CC(=O)C=C[C@]4(C)[C@@]3(F)[C@@H](O)C[C@]2(C)[C@@]1(O)C(=O)CO` [DEXAMETHASONE]: the INH in data set [1] is 10.7%; in data set [2], 34.2%; in data set [3] it was -12.5%.
The matching figures for `COc1ccc2c(c1)[C@]13CCCC[C@@H]1[C@H](C2)N(C)CC3` [DEXTROMETHORPHAN]: 36.3%, -21.9% and 15.9%.
The matching figures for `CC/C(=C(/CC)c1ccc(O)cc1)c1ccc(O)cc1` [DIETHYLSTILBESTROL]: 62.1%, 31.1% and 68.1%.
Turning to `COc1ccc([C@@H]2Sc3ccccc3N(CCN(C)C)C(=O)[C@@H]2OC(C)=O)cc1` [DILTIAZEM], the INH in data set [1] is on record as 3.2%; in data set [2], 4.1%; in data set [3] it was -9.1%.
`CC(C)N(CCC(C(N)=O)(c1ccccc1)c1ccccn1)C(C)C` (centres undefined) [DISOPYRAMIDE]: the INH was 47.5% in data set [1], 8.6% in data set [2] and 18.5% in data set [3].
For `COc1cc2nc(N3CCN(C(=O)C4COc5ccccc5O4)CC3)nc(N)c2cc1OC` (centres undefined) [DOXAZOSIN], the INH in data set [1] was 28.8%; in data set [2], -17.3%; in data set [3] it was 45.8%.
The matching figures for `O=C1Nc2ccc(Cl)cc2[C@@](C#CC2CC2)(C(F)(F)F)O1` [EFAVIRENZ]: 40.9%, 18.2% and 43.2%.
With `CC[C@H]1OC(=O)[C@H](C)[C@@H](O[C@H]2C[C@@](C)(OC)[C@@H](O)[C@H](C)O2)[C@H](C)[C@@H](O[C@@H]2O[C@H](C)C[C@H](N(C)C)[C@H]2O)[C@](C)(O)C[C@@H](C)C(=O)[C@H](C)[C@@H](O)[C@]1(C)O` [ERYTHROMYCIN], the INH is listed as 58.8% in data set [1], 45.8% in data set [2] and -19% in data set [3].
In the same order, the values of `C[C@]12CC[C@@H]3c4ccc(O)cc4CC[C@H]3[C@@H]1CC[C@@H]2O` [ESTRADIOL] are 102.8%, 39.3% and 47.4%.
For the compound `C[C@]12CC[C@@H]3c4ccc(OS(=O)(=O)O)cc4CC[C@H]3[C@@H]1CCC2=O` [ESTRONE SULFURIC ACID], the INH in data set [1] was 98.1%; in data set [2], 10.1%; in data set [3], 20.8%.
For the compound `O=C1[C@H](CC[C@H](O)c2ccc(F)cc2)[C@@H](c2ccc(O)cc2)N1c1ccc(F)cc1` [EZETIMIBE], the INH in data set [1] is on record as 55.5%; in data set [2], 1.5%; in data set [3], -8.9%.
The matching figures for `CCOC(=O)C1=C(C)NC(C)=C(C(=O)OC)C1c1cccc(Cl)c1Cl` (centres undefined) [FELODIPINE]: 36.6%, 18.4% and 21.4%.
In the same order, the values of `CC(NCCC(c1ccccc1)c1ccccc1)c1ccccc1` (centres undefined) [FENDILINE] are 15%, 20.4% and -118.7%.
The matching figures for `CC(C)OC(=O)C(C)(C)Oc1ccc(C(=O)c2ccc(Cl)cc2)cc1` [FENOFIBRATE]: 5.4%, -10.8% and 34.2%.
For the compound `OC(Cn1cncn1)(Cn1cncn1)c1ccc(F)cc1F` [FLUCONAZOLE], the INH in data set [1] was 7.4%; in data set [2], 7.5%; in data set [3], 34.1%.
In the same order, the values of `CNCCC(Oc1ccc(C(F)(F)F)cc1)c1ccccc1` (centres undefined) [FLUOXETINE] are 21.8%, 14.3% and 22.6%.
`CC(C)C(=O)Nc1ccc([N+](=O)[O-])c(C(F)(F)F)c1` [FLUTAMIDE]: the results for the INH in data set [1], in data set [2] and in data set [3] were 6.8%, 9% and 65.8%, respectively.
Take `COCCCC/C(=N\OCCN)c1ccc(C(F)(F)F)cc1` [FLUVOXAMINE]: the INH came out at 43.8% in data set [1], 29.2% in data set [2] and 39% in data set [3].
